Read-outs that look alike come from different tables or passages of the source.
Key:
HCT116^+/+ = assay: Antiproliferative assay (MTS, 72 h) on HCT116 wild type; format: cell-based, human; settings: MTS, 72 h incubation, read-out: Activity IC50 HCT116^+/+
Procedure: (§1) All of the synthesized compounds were tested for their antiproliferative activity against human colon cancer (Table 1). We used both the wild-type and p53-negative cell lines (HCT116^+/+ and HCT116^−/−, respectively). Mutations in the TP53 gene are present in more than 50% of all cancers and often specifically correspond to a difficult therapy, resistance or a bad prognosis[60]–[63]. The active compounds were additionally tested for their cytotoxicity against normal human fibroblasts. We used 5-fluorouracil (5-FLU), doxorubicin (DOX) and CP-31398 as the standards. 5-FLU is one of the first antimetabolites that was dedicated for cancer treatment and is still used for a wide range of cancers including colon carcinoma. Doxorubicin is a DNA topoisomerase II poison with a high intercalating potency, which is able to induce apoptosis through the p53 pathway. Although DOX has been described as being ineffective in some p53 mutants, its level of activity against the p53 null lines is similar. CP-31398, on the other hand, is an experimental drug in the clinical phase and its mechanism of action is through the reactivation some of p53 mutants. Its activity against the p53 null cell lines is greatly diminished and is actually lower than its cytotoxicity.
(§2) The human colon cancer cell line HCT116 wild type was obtained from ATCC and the normal human fibroblast cell lines NHDF were obtained from PromoCell. The human colon cancer cell line HCT116 with a p53 deletion (p53^−/−) was kindly provided by Prof. M. Rusin from the Maria Sklodowska-Curie Memorial Cancer Centre and Institute of Oncology in Gliwice, Poland[89]. The cells were grown as monolayer cultures in Dulbecco’s modified Eagle’s medium with the antibiotic gentamicin (200 μL/100 mL medium) in 75 cm^2 flasks (Nunc). The DMEM for the HCT116 were supplemented with 12% heat-inactivated fetal bovine serum (Sigma-Aldrich, St. Louis, MO, USA) and for NHDF with 15% non-inactivated fetal bovine serum (Sigma Aldrich, St. Louis, MO, USA). The cells were cultured under standard conditions at 37 °C in a humidified atmosphere at 5% CO2.
(§3) The cells were seeded in 96-well plates (Nunc) at a density of 5,000 cells/well (HCT116) and 4,000 cells/well (NHDF) and incubated at 37 °C for 24 h. The assay was performed following a 72 h incubation with varying concentrations of the compounds that were being tested. Then, 20 µL of CellTiter 96® AQueous One Solution-MTS (Promega) was added to each well (with 100 µL DMEM without phenol red) and incubated for 1 h at 37 °C. The optical densities of the samples were analyzed at 490 nm using a Synergy 4 multi-plate reader (BioTek, Winooski, VT, USA). The results are expressed as the percentage of the control and were calculated as the inhibitory concentration (IC50) values (using a GraphPad Prism 7). The IC50 parameter was defined as the compound concentration that was necessary to reduce the proliferation of cells to 50% of the untreated control. Each individual compound was tested in triplicate in a single experiment with each experiment being repeated three or four times.

HCT116^−/− = assay: Antiproliferative assay (MTS, 72 h) on HCT116 with p53 deletion; format: cell-based, human; settings: for IC50: MTS, 72 h incubation
Procedure: as §1, §2, §3

NHDF = assay: Cytotoxicity (MTS, 72 h) against normal human fibroblasts; format: cell-based; settings: for IC50: MTS, 72 h incubation
Procedure: as §1, §2, §3

SMILES | IC50 (HCT116^+/+) [µM] | IC50 (HCT116^−/−) [µM] | IC50 (NHDF) [µM] | further results
O=C(Nc1ccccc1Cl)c1ccc2ccccc2c1O [5a] | 16.5 ± 2.25 | 22.4 ± 3.58 | > 25 | –
O=C(Nc1cc(C(F)(F)F)ccc1C(F)(F)F)c1ccc2ccccc2c1O [7e] | 4.44 ± 1.16 | 8.53 ± 3.37 | 22.9 ± 2.1 | –
O=C(Nc1cc(Cl)cc(Cl)c1)c1ccc2ccccc2c1O [5i] | 2.32 ± 0.26 | 2.89 ± 0.38 | 11.5 ± 0.88 | –
O=C(Nc1ccc(C(F)(F)F)c(F)c1)c1ccc2ccccc2c1O [4w] | – | – | – | IC50 (HCT116^+/+; Homo sapiens, HCT-116): 3.25 ± 0.94 µM; IC50 (HCT116^−/−; Homo sapiens, HCT-116): 4.82 ± 1.46 µM; IC50 (NHDF; Homo sapiens, NHDF): 22.8 ± 2.69 µM
O=C(Nc1cc(Cl)c(Cl)c(Cl)c1)c1ccc2ccccc2c1O [5l] | 1.31 ± 0.15 | 2.86 ± 0.33 | 7.01 ± 0.42 | –
COc1cc(NC(=O)c2ccc3ccccc3c2O)cc(OC)c1 [2e, N-(3,5-dimethoxyphenyl)−1-hydroxynaphthalene-2-carboxamide] | – | – | – | IC50 (HCT116^+/+; Homo sapiens, HCT-116): > 25 µM; IC50 (HCT116^−/−; Homo sapiens, HCT-116): > 25 µM; IC50 (NHDF; Homo sapiens, NHDF): > 25 µM
O=C(Nc1ccc(C(F)(F)F)cc1)c1ccc2ccccc2c1O [7c] | 4.31 ± 0.51 | 1.07 ± 0.26 | 16.6 ± 2.17 | –
Cc1cccc(NC(=O)c2ccc3ccccc3c2O)c1 [3b] | > 25 | > 25 | – | –
O=C(Nc1cccc(Br)c1)c1ccc2ccccc2c1O [6b] | 9.19 ± 0.98 | 8.73 ± 0.89 | 15.2 ± 2.48 | –
O=C(Nc1ccc(C(F)(F)F)cc1[N+](=O)[O-])c1ccc2ccccc2c1O [8d] | > 25 | > 25 | – | –
Cc1ccccc1NC(=O)c1ccc2ccccc2c1O [3a] | > 25 | > 25 | – | –
O=C(Nc1ccc(C(F)(F)F)cc1Cl)c1ccc2ccccc2c1O [5o] | 4.92 ± 1.32 | 5.41 ± 1.11 | 13.2 ± 1.97 | –
Cc1ccc(C)c(NC(=O)c2ccc3ccccc3c2O)c1 [3d] | – | – | – | IC50 (HCT116^+/+; Homo sapiens, HCT-116): > 25 µM; IC50 (HCT116^−/−; Homo sapiens, HCT-116): > 25 µM
O=C(Nc1ccc(Br)cc1Cl)c1ccc2ccccc2c1O [5n] | 2.33 ± 0.95 | 9.79 ± 1.95 | 23.4 ± 0.86 | –
O=C(Nc1ccc(Br)c(Cl)c1)c1ccc2ccccc2c1O [5t] | 12.3 ± 0.79 | 12.6 ± 0.69 | > 25 | selectivity towards the p53 null cells (HCT116 p53^−/− vs wild type) (HCT116^−/−): not selective
O=C(Nc1ccc(Cl)cc1Cl)c1ccc2ccccc2c1O [5e] | 1.95 ± 0.5 | 6.06 ± 1.13 | > 25 | –
O=C(Nc1cc(Cl)ccc1Cl)c1ccc2ccccc2c1O [5f] | 7.45 ± 0.85 | 7.19 ± 1.15 | > 25 | –
O=C(Nc1ccc([N+](=O)[O-])cc1C(F)(F)F)c1ccc2ccccc2c1O [7j] | 2.04 ± 0.71 | 4.74 ± 1.68 | 12.6 ± 1.32 | –
O=C(Nc1ccc(Br)cc1)c1ccc2ccccc2c1O [6c] | 5.25 ± 0.67 | 11 ± 0.97 | > 25 | –
O=C(Nc1ccccc1C(F)(F)F)c1ccc2ccccc2c1O [7a] | > 25 | 21.4 ± 1.24 | – | –

SMILES | IC50 (HCT116^+/+) [µM] | IC50 (HCT116^−/−) [µM] | IC50 (NHDF) [µM] | further results
O=C(Nc1cc(C(F)(F)F)ccc1Br)c1ccc2ccccc2c1O [6k] | 8.18 ± 1.72 | 7.15 ± 1.96 | 22.2 ± 0.83 | –
O=C(Nc1cc(Cl)c(Cl)cc1Cl)c1ccc2ccccc2c1O [5j] | 3 ± 0.24 | 6.21 ± 0.66 | 20.2 ± 0.79 | –
Cc1cc(C)cc(NC(=O)c2ccc3ccccc3c2O)c1 [3f] | – | – | – | IC50 (HCT116^+/+; Homo sapiens, HCT-116): 19.3 ± 1.68 µM; IC50 (HCT116^−/−; Homo sapiens, HCT-116): > 25 µM; IC50 (NHDF; Homo sapiens, NHDF): > 25 µM
COc1cc(NC(=O)c2ccc3ccccc3c2O)cc(OC)c1OC [2f] | 6.54 ± 2.42 | 8.78 ± 2.13 | > 25 | –
Cc1ccc(NC(=O)c2ccc3ccccc3c2O)cc1 [3c] | > 25 | > 25 | – | –
O=C(Nc1cccc([N+](=O)[O-])c1)c1ccc2ccccc2c1O [8b] | 6.82 ± 1.17 | 3.1 ± 0.63 | > 25 | –
O=C(Nc1cccc(F)c1)c1ccc2ccccc2c1O [4b] | 1.88 ± 0.33 | 9.02 ± 1.91 | > 25 | –
COc1ccc(NC(=O)c2ccc3ccccc3c2O)cc1 [2c] | > 25 | > 25 | – | –
O=C(Nc1cc(C(F)(F)F)ccc1Cl)c1ccc2ccccc2c1O [5r] | – | – | – | IC50 (HCT116^+/+; Homo sapiens, HCT-116): 2.48 ± 0.31 µM; IC50 (HCT116^−/−; Homo sapiens, HCT-116): 1.46 ± 0.21 µM; IC50 (NHDF; Homo sapiens, NHDF): 12.4 ± 1.14 µM
O=C(Nc1ccc(Br)cc1C(F)(F)F)c1ccc2ccccc2c1O [7i] | > 25 | > 25 | – | –
O=C(Nc1cccc(Cl)c1Cl)c1ccc2ccccc2c1O [5d] | 4.66 ± 0.58 | 8.25 ± 0.64 | > 25 | –
O=c1[nH]cc(F)c(=O)[nH]1 [5-FLU, 5-fluorouracil, reference compound] | – | – | – | IC50 (HCT116^+/+; Homo sapiens, HCT-116): 4.42 ± 0.7 µM; IC50 (HCT116^−/−; Homo sapiens, HCT-116): 4.69 ± 0.31 µM; IC50 (NHDF; Homo sapiens, NHDF): > 25 µM
O=C(Nc1c(F)c(F)c(Br)c(F)c1F)c1ccc2ccccc2c1O [4y] | 2.41 ± 0.69 | 5.68 ± 1.37 | 7.87 ± 1.37 | –
O=C(Nc1c(Cl)cc(Cl)cc1Cl)c1ccc2ccccc2c1O [5k] | 19.4 ± 1.27 | > 25 | > 25 | –
O=C(Nc1cccc(Cl)c1)c1ccc2ccccc2c1O [5b] | 4.7 ± 0.4 | 1.78 ± 0.32 | > 25 | –
O=C(Nc1ccc(F)cc1)c1ccc2ccccc2c1O [4c] | 2.49 ± 0.61 | 5.01 ± 1.12 | > 25 | –
Cc1cccc(C)c1NC(=O)c1ccc2ccccc2c1O [3e] | – | – | – | IC50 (HCT116^+/+; Homo sapiens, HCT-116): > 25 µM; IC50 (HCT116^−/−; Homo sapiens, HCT-116): > 25 µM
O=C(Nc1ccccc1[N+](=O)[O-])c1ccc2ccccc2c1O [8a] | 23.3 ± 3.77 | > 25 | 22.7 ± 2.71 | –
O=C(Nc1ccc(C(F)(F)F)cc1C(F)(F)F)c1ccc2ccccc2c1O [7d] | 11.3 ± 1.31 | 8.69 ± 1.02 | > 25 | –
COc1ccc(C(F)(F)F)cc1NC(=O)c1ccc2ccccc2c1O [2i] | – | – | – | IC50 (HCT116^+/+; Homo sapiens, HCT-116): > 25 µM; IC50 (HCT116^−/−; Homo sapiens, HCT-116): > 25 µM

SMILES | IC50 (HCT116^+/+) [µM] | IC50 (HCT116^−/−) [µM] | IC50 (NHDF) [µM] | further results
O=C(Nc1ccc(Cl)cc1C(F)(F)F)c1ccc2ccccc2c1O [7h] | > 25 | > 25 | – | –
O=C(Nc1ccccc1)c1ccc2ccccc2c1O [compound 1] | – | – | – | IC50 (HCT116^+/+; Homo sapiens, HCT-116): > 25 µM; IC50 (HCT116^−/−; Homo sapiens, HCT-116): > 25 µM
O=C(Nc1cccc(C(F)(F)F)c1)c1ccc2ccccc2c1O [7b] | 6.25 ± 0.47 | 1.39 ± 0.29 | > 25 | –
O=C(Nc1c(Br)cccc1Br)c1ccc2ccccc2c1O [6f] | > 25 | > 25 | – | –
O=C(Nc1cc(Br)ccc1Br)c1ccc2ccccc2c1O [6e] | 5.24 ± 0.28 | 5.85 ± 0.61 | > 25 | –
O=C(Nc1ccc(Cl)cc1Br)c1ccc2ccccc2c1O [6h] | 9.54 ± 2.71 | 13.2 ± 2.3 | > 25 | –
O=C(Nc1cc(Br)ccc1Cl)c1ccc2ccccc2c1O [5q] | 4.18 ± 1.49 | 5.4 ± 2.04 | > 25 | –
O=C(Nc1ccc(Br)cc1Br)c1ccc2ccccc2c1O [6d] | 4.56 ± 0.43 | 4.61 ± 0.72 | > 25 | –
O=C(Nc1c(Br)cc(Br)cc1Br)c1ccc2ccccc2c1O [6g] | > 25 | > 25 | – | –
O=C(Nc1ccc(Cl)c(Cl)c1)c1ccc2ccccc2c1O [5h] | 5.15 ± 0.5 | 4.74 ± 0.82 | > 25 | selectivity towards the p53 null cells (HCT116 p53^−/− vs wild type) (HCT116^−/−): not selective
O=C(Nc1ccc([N+](=O)[O-])c(C(F)(F)F)c1)c1ccc2ccccc2c1O [7p] | 1.64 ± 0.47 | 1.39 ± 0.44 | 9.68 ± 1.49 | –
O=C(Nc1ccc([N+](=O)[O-])cc1)c1ccc2ccccc2c1O [8c] | 0.41 ± 0.05 | 0.69 ± 0.09 | 12.3 ± 1.49 | selectivity index (NHDF; cytotoxicity against the normal cell line vs HCT116): 30
O=C(Nc1ccccc1F)c1ccc2ccccc2c1O [4a] | > 25 | > 25 | – | –
COc1cccc(NC(=O)c2ccc3ccccc3c2O)c1 [2b] | 8.51 ± 1.69 | 24.1 ± 3.54 | > 25 | –
COc1ccccc1NC(=O)c1ccc2ccccc2c1O [2a] | > 25 | > 25 | – | –
O=C(Nc1c(Cl)cccc1Cl)c1ccc2ccccc2c1O [5g] | > 25 | > 25 | – | –
O=C(Nc1ccccc1Br)c1ccc2ccccc2c1O [6a] | 22.5 ± 3.62 | > 25 | > 25 | –
O=C(Nc1ccc(Cl)cc1)c1ccc2ccccc2c1O [5c] | 9.62 ± 0.75 | 9.41 ± 0.78 | > 25 | –

Reference: article PMC6476888, “Design and synthesis of anticancer 1-hydroxynaphthalene-2-carboxanilides with a p53 independent mechanism of action” (Scientific Reports, 2019)
